Source: PubChem BioAssay (NCI)
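Grown in 96-well plates, cells were treated for 48 hours with each compound at five concentrations. Insufficient inhibition: endpoint recorded as highest concentration tested. TGI denotes the concentration required for complete inhibition of growth.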

Tests used:
Assay in all cases: NCI anticancer screen, dose series, 48 h
[1] = test system: CCRF-CEM leukemia
[2] = test system: NCI/ADR-RES ovarian
[3] = test system: HCC-2998 colon
[4] = test system: RXF 393 renal
[5] = test system: UO-31 renal
[6] = test system: OVCAR-5 ovarian
[7] = test system: NCI-H23 lung
[8] = test system: LOX IMVI melanoma
[9] = test system: SK-MEL-5 melanoma
[10] = test system: TK-10 renal
[11] = test system: UACC-257 melanoma
[12] = test system: HOP-62 NSCLC
[13] = test system: MDA-N
[14] = test system: T-47D breast
[15] = test system: SNB-75 CNS
[16] = test system: SK-MEL-2 melanoma
[17] = test system: SNB-19 CNS
[18] = test system: SW-620 colon
[19] = test system: SR leukemia

Row | SMILES | TGI [1] [µM] | TGI [2] [µM] | TGI [3] [µM] | TGI [4] [µM] | TGI [5] [µM] | TGI [6] [µM] | TGI [7] [µM] | TGI [8] [µM] | TGI [9] [µM] | TGI [10] [µM] | TGI [11] [µM] | TGI [12] [µM] | TGI [13] [µM] | TGI [14] [µM] | TGI [15] [µM] | TGI [16] [µM] | TGI [17] [µM] | TGI [18] [µM] | TGI [19] [µM]
1 | CC(=O)OCC1OC(OC2CC3C(C)(C)C(=O)CC[C@]3(C)C3CC[C@]45C[C@]4(CCC5[C@@H](C)CC(O)C(O)C(C)(C)O)[C@]23C)C(O)C(O)C1O (stereo partly drawn) | 16.7 | 32.8 | 21.7 | 21.9 | 32.2 | 30.8 | 32.7 | 12.6 | 20.3 | 28.1 | 23.6 | 33.8 | 22.7 | 18.8 | 18.8 | 17.1 | 23.3 | 26 | 16.9
2 | Cc1ccc2cccc(OC(=O)c3cc4c(cc3Cl)Sc3nccn3S4(=O)=O)c2n1 | 17 | 46.2 | 13.1 | 20.5 | 30.6 | > 61.2 | 63.6 | 19.8 | 27 | 30.9 | 25.4 | 19.4 | > 96 | 13 | 39.6 | 27.1 | 46.3 | 40.3 | 16.7
